US8975406B2, “Compound useful for the treatment of degenerative and inflammatory diseases” (Galapagos N.V., priority 2011, dated 2015)

Tests used:
Assay type in all cases: biochemical
[1] = target: T1, Recombinant human JAK2 catalytic domain (Homo sapiens, UniProt O60674); test: JAK2 assay polyGT substrate; conditions: 33P-gamma-ATP filter assay, 1 μM ATP
T1 construct: catalytic domain (amino acids 808-1132; catalog number PV4210); GST; purchased Invitrogen PV4210
Description: Recombinant human JAK2 catalytic domain (amino acids 808-1132; catalog number PV4210) was purchased from Invitrogen. 0.05 mU of JAK2 was incubated with 2.5 μg polyGT substrate (Sigma catalog number P0275) in kinase reaction buffer (10 mM MOPS pH 7.5, 0.5 mM EDTA, 0.01% Brij-35, 1 mM DTT, 15 mM MgAc, 1 μM non-radioactive ATP, 0.25 μCi ^33P-gamma-ATP (Perkin Elmer, catalog number NEG602K001MC) final concentrations) with or without 5 μL containing test compound or vehicle (DMSO, 1% final concentration), in a total volume of 25 μL, in a polypropylene 96-well plate (Greiner, V-bottom). After 90 min at 30° C., reactions were stopped by adding of 25 μL/well of 150 mM phosphoric acid. All of the terminated kinase reaction was transferred to prewashed (75 mM phosphoric acid) 96 well filter plates (Perkin Elmer catalog number 6005177) using a cell harvester (Perkin Elmer). Plates were washed 6 times with 300 μL per well of a 75 mM phosphoric acid solution and the bottom of the plates was sealed. 40 μL/well of Microscint-20 was added, the top of the plates was sealed and readout was performed using the Topcount (Perkin Elmer). Kinase activity was calculated by subtracting counts per min (cpm) obtained in the presence of a positive control inhibitor (10 μM staurosporine) from cpm obtained in the presence of vehicle. The ability of a test compound to inhibit this activity was determined as: Percentage inhibition=((cpm determined for sample with test compound present−cpm determined for sample with positive control inhibitor)divided by(cpm determined in the presence of vehicle−cpm determined for sample with positive control inhibitor))*100.
(§1) Dose dilution series were prepared for the compounds enabling the testing of dose-response effects in the JAK2 assay and the calculation of the IC50 for each compound. Each compound was routinely tested at concentration of 20 μM followed by a ⅓ serial dilution, 8 points (20 μM-6.67 μM-2.22 μM-740 nM-247 nM-82 nM-27 nM-9 nM) in a final concentration of 1% DMSO. When potency of compound series increased, more dilutions were prepared and/or the top concentration was lowered (e.g. 5 μM, 1 μM).

[2] = target: T2, Recombinant human JAK1 catalytic domain (Homo sapiens, UniProt P23458); test: JAK1 assay polyGT substrate; conditions: 33P-gamma-ATP filter assay, 2 μM ATP
T2 construct: catalytic domain (amino acids 866-1154; catalog number PV4774); purchased Invitrogen PV4774
Description: Recombinant human JAK1 catalytic domain (amino acids 866-1154; catalog number PV4774) was purchased from Invitrogen. 25 ng of JAK1 was incubated with 6.25 μg polyGT substrate (Sigma catalog number P0275) in kinase reaction buffer (15 mM Hepes pH7.5, 0.01% Tween20, 10 mM MgCl2, 2 μM non-radioactive ATP, 0.25 μCi ^33P-gamma-ATP (Perkin Elmer, catalog number NEG602K001MC) final concentrations) with or without 5 μL containing test compound or vehicle (DMSO, 1% final concentration), in a total volume of 25 μL, in a polypropylene 96-well plate (Greiner, V-bottom). After 75 min at 30° C., reactions were stopped by adding of 25 μL/well of 150 mM phosphoric acid. All of the terminated kinase reaction was transferred to prewashed (75 mM phosphoric acid) 96 well filter plates (Perkin Elmer catalog number 6005177) using a cell harvester (Perkin Elmer). Plates were washed 6 times with 300 μL per well of a 75 mM phosphoric acid solution and the bottom of the plates was sealed. 40 μL/well of Microscint-20 was added, the top of the plates was sealed and readout was performed using the Topcount (Perkin Elmer). Kinase activity was calculated by subtracting counts per min (cpm) obtained in the presence of a positive control inhibitor (10 μM staurosporine) from cpm obtained in the presence of vehicle. The ability of a test compound to inhibit this activity was determined as: Percentage inhibition=((cpm determined for sample with test compound present−cpm determined for sample with positive control inhibitor)divided by(cpm determined in the presence of vehicle−cpm determined for sample with positive control inhibitor))*100.
as §1, with “JAK1” for “JAK2”

[3] = target: T3, JAK3 (Homo sapiens, UniProt P52333); test: JAK3 Ki determination assay; conditions: Lineweaver-Burk plot, polyGT substrate, varying ATP
T3 construct: catalytic domain (amino acids 795-1124; catalog number 08-046); purchased Carna Biosciences 08-046
Description: For the determination of Ki, different amounts of compound are mixed with the enzyme and the enzymatic reaction is followed as a function of ATP concentration. The Ki is determined by means of double reciprocal plotting of Km vs compound concentration (Lineweaver-Burk plot). JAK3 (Carna Biosciences, 08-046) was used at a final concentration of 20 ng/ml. The substrate was Poly(Glu,Tyr)sodium salt (4:1), MW 20 000-50 000 (Sigma, P0275) The reaction was performed in 25 mM Tris pH 7.5, 0.01% Triton X-100, 0.5 mM EGTA, 2.5 mM DTT, 0.5 mM Na3VO4, 5 mM b-glycerolphosphate, 10 mM MgCl2 with varying concentrations of ATP and compound and stopped by addition of 150 mM phosphoric acid. Measurement of incorporated phosphate into the substrate polyGT was done by loading the samples on a filter plate (using a harvester, Perkin Elmer) and subsequent washing. Incorporated ^33P in polyGT is measured in a Topcount scintillation counter after addition of scintillation liquid to the filter plates (Perkin Elmer).

T2 sequence (P23458 866-1154): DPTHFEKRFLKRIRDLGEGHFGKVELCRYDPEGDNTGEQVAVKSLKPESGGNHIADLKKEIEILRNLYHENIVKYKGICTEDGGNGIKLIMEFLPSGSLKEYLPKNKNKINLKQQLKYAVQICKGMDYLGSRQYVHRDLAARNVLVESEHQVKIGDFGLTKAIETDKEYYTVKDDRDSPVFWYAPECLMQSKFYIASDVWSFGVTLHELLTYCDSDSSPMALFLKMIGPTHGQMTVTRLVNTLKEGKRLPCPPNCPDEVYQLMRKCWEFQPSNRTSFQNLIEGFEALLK
T1 sequence (O60674 808-1132): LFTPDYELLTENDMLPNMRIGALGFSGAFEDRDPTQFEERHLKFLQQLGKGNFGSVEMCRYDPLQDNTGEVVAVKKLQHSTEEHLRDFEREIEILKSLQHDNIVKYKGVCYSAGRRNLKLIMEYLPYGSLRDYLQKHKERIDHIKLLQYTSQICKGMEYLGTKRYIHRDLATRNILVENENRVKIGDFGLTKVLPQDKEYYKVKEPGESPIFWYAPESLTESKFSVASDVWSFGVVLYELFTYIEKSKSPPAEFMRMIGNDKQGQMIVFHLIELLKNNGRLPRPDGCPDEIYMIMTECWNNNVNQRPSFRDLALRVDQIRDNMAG
T3 sequence (P52333 795-1124): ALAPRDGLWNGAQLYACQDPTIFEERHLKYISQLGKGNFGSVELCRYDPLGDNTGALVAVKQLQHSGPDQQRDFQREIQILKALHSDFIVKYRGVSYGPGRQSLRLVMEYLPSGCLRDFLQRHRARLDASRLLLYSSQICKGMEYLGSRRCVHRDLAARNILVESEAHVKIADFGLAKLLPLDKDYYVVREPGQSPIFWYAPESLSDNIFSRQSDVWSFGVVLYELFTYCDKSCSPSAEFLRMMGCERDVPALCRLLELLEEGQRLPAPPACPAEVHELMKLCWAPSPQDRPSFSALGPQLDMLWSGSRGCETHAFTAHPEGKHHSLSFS

SMILES: COc1ccc(-c2cccn3nc(NC(=O)C4CC4)cc23)cc1 [Compound 1, N-(4-(4-methoxyphenyl)pyrazolo[1,5-a]pyridin-2-yl)cyclopropanecarboxamide]
- IC50 [1]: 0.01 to 100 nM
- IC50 [2]: 0.01 to 100 nM

SMILES: O=C(Nc1cc2c(-c3ccc(OCc4ccccc4)cc3)cccn2n1)C1CC1 [Compound 2, N-(4-(4-(benzyloxy)phenyl)pyrazolo[1,5-a]pyridin-2-yl)cyclopropanecarboxamide]
- IC50 [1]: 101 to 500 nM
- IC50 [2]: 0.01 to 100 nM

SMILES: O=C(Nc1cc2c(-c3ccc4c(ccn4Cc4ccccc4)c3)cccn2n1)C1CC1 [Compound 3, N-(4-(1-benzyl-1H-indol-5-yl)pyrazolo[1,5-a]pyridin-2-yl)cyclopropanecarboxamide]
- IC50 [1]: 101 to 500 nM
- IC50 [2]: 0.01 to 100 nM

SMILES: O=C(Nc1cc2c(-c3ccc4[nH]ccc4c3)cccn2n1)C1CC1 [Compound 4, N-(4-(1H-indol-5-yl)pyrazolo[1,5-a]pyridin-2-yl)cyclopropanecarboxamide]
- IC50 [1]: 0.01 to 100 nM
- IC50 [2]: 0.01 to 100 nM

SMILES: O=C(NCCc1ccccc1)c1ccc(-c2cccn3nc(NC(=O)C4CC4)cc23)cc1 [Compound 5, 4-(2-(cyclopropanecarboxamido)pyrazolo[1,5-a]pyridin-4-yl)-N-phenethylbenzamide]
- IC50 [1]: 0.01 to 100 nM
- IC50 [2]: 0.01 to 100 nM

SMILES: O=C(NCCOc1ccccc1)c1ccc(-c2cccn3nc(NC(=O)C4CC4)cc23)cc1 [Compound 6, 4-(2-(cyclopropanecarboxamido)pyrazolo[1,5-a]pyridin-4-yl)-N-(2-phenoxyethyl)benzamide]
- IC50 [1]: 0.01 to 100 nM
- IC50 [2]: 0.01 to 100 nM

SMILES: COc1ccc(-c2cccn3nc(NC(=O)C4CC4)c(-c4ccccc4)c23)cc1 [Compound 7, N-(4-(4-methoxyphenyl)-3-phenylpyrazolo[1,5-a]pyridin-2-yl)cyclopropanecarboxamide]
- IC50 [1]: > 1000 nM
- IC50 [2]: > 1000 nM

SMILES: O=C(Nc1cc2c(-c3ccc(OCc4cccnc4)cc3)cccn2n1)C1CC1 [Compound 8, N-(4-(4-(pyridin-3-ylmethoxy)phenyl)pyrazolo[1,5-a]pyridin-2-yl)cyclopropanecarboxamide]
- IC50 [1]: 0.01 to 100 nM
- IC50 [2]: 0.01 to 100 nM

SMILES: CC(=O)Nc1cc2c(-c3ccc(CN4CCN(S(C)(=O)=O)CC4)c(F)c3)cccn2n1 [Compound 21]
- Ki [3]: 227 nM
